Results as given in patent publication US20050014753A1, “Novel compounds and compositions as protein kinase inhibitors” (IRM LLC, priority 2003, published 2005).

Columns and labels:
Type in all cases: cell-based
T3151 Bcr-abl = target: T1, T3151 Bcr-abl (Homo sapiens, UniProt P00519, T315I, cells depend on it); assay: Antiproliferative effect on Ba/F3 cells expressing mutant Bcr-abl T315I
T1 construct: fused on or other part: P11274 (Breakpoint cluster region protein)
Description: (§1) Compounds selectively inhibiting the proliferation of these Bcr-abl transformed cells are tested for anti-proliferative activity on Ba/F3 cells expressing either wild type or the mutant forms of Bcr-abl.
(§2) 32D-p210 cells are plated into 96 well TC plates at a density of 15,000 cells per well. 50 μL of two fold serial dilutions of the test compound (Cmax is 40 μM) are added to each well (ST1571 is included as a positive control). After incubating the cells for 48 hours at 37° C., 5% CO2, 15 μL of MTT (Promega) is added to each well and the cells are incubated for an additional 5 hours. The optical density at 570 nm is quantified spectrophotometrically and IC50 values, the concentration of compound required for 50% inhibition, determined from a dose response curve.
(§3) Compounds of the invention are tested for their antiproliferative effect on Ba/F3 cells expressing either wild type or the mutant forms of Bcr-abl (G250E, E255V, T315I, F317L, M351T) that confers resistance or diminished sensitivity to STI571. The antiproliferative effect of these compounds on the mutant-Bcr-abl expressing cells and on the non transformed cells were tested at 10, 3.3, 1.1 and 0.37 μM as described above (in media lacking IL3). The IC50 values of the compounds lacking toxicity on the untransformed cells were determined from the dose response curves obtained as describe above.

F317L Bcr-abl = target: T2, F317L Bcr-abl (Homo sapiens, UniProt P00519, F317L); assay: Antiproliferative effect on Ba/F3 cells expressing mutant Bcr-abl F317L
T2 construct: expressed in transfected cells; host or cells: Ba/F3 (murine pro-B cells); the other entry of the earlier key: BCR (P11274, Breakpoint cluster region protein)
Description: as §1, §2, §3

wild-type Bcr-abl = target: T3, wild-type Bcr-abl (Homo sapiens, UniProt P00519); assay: Antiproliferative effect on Ba/F3 cells expressing wild type Bcr-abl
T3 construct: expressed in transfected cells; host or cells: Ba/F3 (murine pro-B cells); the other entry of the earlier key: BCR (P11274, Breakpoint cluster region protein)
Description: as §1, §2, §3

G250E Bcr-abl = target: T4, G250E Bcr-abl (Homo sapiens, UniProt P00519, G250E); assay: Antiproliferative effect on Ba/F3 cells expressing mutant Bcr-abl G250E
T4 construct: expressed in transfected cells; host or cells: Ba/F3 (murine pro-B cells); the other entry of the earlier key: BCR (P11274, Breakpoint cluster region protein)
Description: as §1, §2, §3

M351T Bcr-abl = target: T5, M351T Bcr-abl (Homo sapiens, UniProt P00519, M351T); assay: Antiproliferative effect on Ba/F3 cells expressing mutant Bcr-abl M351T
T5 construct: expressed in transfected cells; host or cells: Ba/F3 (murine pro-B cells); the other entry of the earlier key: BCR (P11274, Breakpoint cluster region protein)
Description: as §1, §2, §3

E255V Bcr-abl = target: T6, E255V Bcr-abl (Homo sapiens, UniProt P00519, E255V); assay: Antiproliferative effect on Ba/F3 cells expressing mutant Bcr-abl E255V
T6 construct: expressed in transfected cells; host or cells: Ba/F3 (murine pro-B cells); the other entry of the earlier key: BCR (P11274, Breakpoint cluster region protein)
Description: as §1, §2, §3

SMILES: NC(=O)c1ccc(-c2cc(-c3cc(Nc4ccc(OC(F)(F)F)cc4)ncn3)ccn2)cc1 [Compound 97]
- IC50 (T3151 Bcr-abl): 5280 nM
- IC50 (F317L Bcr-abl): 4450 nM
- IC50 (wild-type Bcr-abl): 200 nM
- IC50 (G250E Bcr-abl): 4780 nM
- IC50 (M351T Bcr-abl): 970 nM
- IC50 (E255V Bcr-abl): 250 nM
